{"source": "ChEMBL document CHEMBL1201862", "about": "“PubChem BioAssay data set” (2004)", "experiment_in_all_cases": "NCI tumour cell line growth inhibition, 48 h", "key": {"786-0": {"system": "786-0"}, "A549": {"system": "A549"}, "ACHN": {"system": "ACHN"}, "BT-549": {"system": "BT-549"}, "CAKI-1": {"system": "CAKI-1"}, "CCRF-CEM": {"system": "CCRF-CEM"}, "COLO 205": {"system": "COLO 205"}, "DU-145": {"system": "DU-145"}, "EKVX": {"system": "EKVX"}, "HCC 2998": {"system": "HCC 2998"}, "HCT-116": {"system": "HCT-116"}, "HCT-15": {"system": "HCT-15"}, "HL-60": {"system": "HL-60"}, "HOP-62": {"system": "HOP-62"}, "HOP-92": {"system": "HOP-92"}, "HT-29": {"system": "HT-29"}, "Hs-578T": {"system": "Hs-578T"}, "IGROV-1": {"system": "IGROV-1"}, "KM12": {"system": "KM12"}, "LOX IMVI": {"system": "LOX IMVI"}, "M14": {"system": "M14"}, "MCF7": {"system": "MCF7"}, "MDA-MB-231": {"system": "MDA-MB-231"}, "MDA-MB-435": {"system": "MDA-MB-435"}, "MDA-N": {"system": "MDA-N"}, "MOLT-4": {"system": "MOLT-4"}, "NCI-H226": {"system": "NCI-H226"}, "NCI-H23": {"system": "NCI-H23"}, "NCI-H460": {"system": "NCI-H460"}, "NCI-H522": {"system": "NCI-H522"}, "NCI/ADR-RES": {"system": "NCI/ADR-RES"}, "OVCAR-3": {"system": "OVCAR-3"}, "OVCAR-4": {"system": "OVCAR-4"}, "OVCAR-5": {"system": "OVCAR-5"}, "OVCAR-8": {"system": "OVCAR-8"}, "PC-3": {"system": "PC-3"}, "RXF 393": {"system": "RXF 393"}, "SF-268": {"system": "SF-268"}, "SF-295": {"system": "SF-295"}, "SF-539": {"system": "SF-539"}, "SK-MEL-28": {"system": "SK-MEL-28"}, "SK-MEL-2": {"system": "SK-MEL-2"}, "SK-MEL-5": {"system": "SK-MEL-5"}, "SK-OV-3": {"system": "SK-OV-3"}, "SN12C": {"system": "SN12C"}, "SNB-19": {"system": "SNB-19"}, "SNB-75": {"system": "SNB-75"}, "SW-620": {"system": "SW-620"}, "TK-10": {"system": "TK-10"}, "U-251": {"system": "U-251"}, "UACC-257": {"system": "UACC-257"}, "UACC-62": {"system": "UACC-62"}, "UO-31": {"system": "UO-31"}, "A498": {"system": "A498"}, "Malme-3M": {"system": "Malme-3M"}, "RPMI-8226": {"system": "RPMI-8226"}, "SR": {"system": "SR"}, "T47D": {"system": "T47D"}}, "note": "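Values below derive from 48-hour exposures of cells grown in 96-well plates, with endpoints linearly interpolated between the two concentrations bracketing the appropriate inhibition level. The concentration for 50% growth inhibition is given as GI50.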 Activity calls are given as the source filed them. Cut-off read from the data, not from the text of the source: active = GI50 up to about 1.1 µM and inactive = higher."}
{"smiles": "COC(=O)C(=O)C(C(=O)C(=O)Nc1cccc([N+](=O)[O-])c1)c1nc2ccc(Cl)cc2nc1O", "note": "(centres undefined)", "values": [{"measurement": "GI50", "setting": "786-0", "value": "> 100 µM (inactive)"}, {"measurement": "GI50", "setting": "A549", "value": "> 100 µM (inactive)"}, {"measurement": "GI50", "setting": "ACHN", "value": "> 100 µM (inactive)"}, {"measurement": "GI50", "setting": "BT-549", "value": "> 100 µM (inactive)"}, {"measurement": "GI50", "setting": "CAKI-1", "value": "95.7 µM (inactive)"}, {"measurement": "GI50", "setting": "CCRF-CEM", "value": "> 100 µM (inactive)"}, {"measurement": "GI50", "setting": "COLO 205", "value": "> 100 µM (inactive)"}, {"measurement": "GI50", "setting": "DU-145", "value": "> 100 µM (inactive)"}, {"measurement": "GI50", "setting": "EKVX", "value": "18.1 µM (inactive)"}, {"measurement": "GI50", "setting": "HCC 2998", "value": "> 100 µM (inactive)"}, {"measurement": "GI50", "setting": "HCT-116", "value": "> 100 µM (inactive)"}, {"measurement": "GI50", "setting": "HCT-15", "value": "> 100", "unit": "µM"}, {"measurement": "GI50", "setting": "HL-60", "value": "> 100 µM (inactive)"}, {"measurement": "GI50", "setting": "HOP-62", "value": "> 100 µM (inactive)"}, {"measurement": "GI50", "setting": "HOP-92", "value": "> 100 µM (inactive)"}, {"measurement": "GI50", "setting": "HT-29", "value": "> 100 µM (inactive)"}, {"measurement": "GI50", "setting": "Hs-578T", "value": "> 100 µM (inactive)"}, {"measurement": "GI50", "setting": "IGROV-1", "value": "> 100 µM (inactive)"}, {"measurement": "GI50", "setting": "KM12", "value": "> 100 µM (inactive)"}, {"measurement": "GI50", "setting": "LOX IMVI", "value": "> 100 µM (inactive)"}, {"measurement": "GI50", "setting": "M14", "value": "> 100 µM (inactive)"}, {"measurement": "GI50", "setting": "MCF7", "value": "> 100 µM (inactive)"}, {"measurement": "GI50", "setting": "MDA-MB-231", "value": "65.3 µM (inactive)"}, {"measurement": "GI50", "setting": "MDA-MB-435", "value": "> 100 µM (inactive)"}, {"measurement": "GI50", "setting": "MDA-N", "value": "> 100 µM (inactive)"}, {"measurement": "GI50", "setting": "MOLT-4", "value": "> 100 µM (inactive)"}, {"measurement": "GI50", "setting": "NCI-H226", "value": "82.6 µM (inactive)"}, {"measurement": "GI50", "setting": "NCI-H23", "value": "> 100 µM (inactive)"}, {"measurement": "GI50", "setting": "NCI-H460", "value": "> 100 µM (inactive)"}, {"measurement": "GI50", "setting": "NCI-H522", "value": "> 100 µM (inactive)"}, {"measurement": "GI50", "setting": "NCI/ADR-RES", "value": "> 100 µM (inactive)"}, {"measurement": "GI50", "setting": "OVCAR-3", "value": "> 100 µM (inactive)"}, {"measurement": "GI50", "setting": "OVCAR-4", "value": "> 100 µM (inactive)"}, {"measurement": "GI50", "setting": "OVCAR-5", "value": "> 100 µM (inactive)"}, {"measurement": "GI50", "setting": "OVCAR-8", "value": "> 100 µM (inactive)"}, {"measurement": "GI50", "setting": "PC-3", "value": "> 100 µM (inactive)"}, {"measurement": "GI50", "setting": "RXF 393", "value": "> 100 µM (inactive)"}, {"measurement": "GI50", "setting": "SF-268", "value": "> 100 µM (inactive)"}, {"measurement": "GI50", "setting": "SF-295", "value": "> 100 µM (inactive)"}, {"measurement": "GI50", "setting": "SF-539", "value": "45.5 µM (inactive)"}, {"measurement": "GI50", "setting": "SK-MEL-28", "value": "> 100 µM (inactive)"}, {"measurement": "GI50", "setting": "SK-MEL-2", "value": "> 100 µM (inactive)"}, {"measurement": "GI50", "setting": "SK-MEL-5", "value": "> 100 µM (inactive)"}, {"measurement": "GI50", "setting": "SK-OV-3", "value": "> 100 µM (inactive)"}, {"measurement": "GI50", "setting": "SN12C", "value": "> 100 µM (inactive)"}, {"measurement": "GI50", "setting": "SNB-19", "value": "> 100 µM (inactive)"}, {"measurement": "GI50", "setting": "SNB-75", "value": "77.1 µM (inactive)"}, {"measurement": "GI50", "setting": "SW-620", "value": "> 100 µM (inactive)"}, {"measurement": "GI50", "setting": "TK-10", "value": "> 100 µM (inactive)"}, {"measurement": "GI50", "setting": "U-251", "value": "> 100 µM (inactive)"}, {"measurement": "GI50", "setting": "UACC-257", "value": "> 100 µM (inactive)"}, {"measurement": "GI50", "setting": "UACC-62", "value": "> 100 µM (inactive)"}, {"measurement": "GI50", "setting": "UO-31", "value": "36.7 µM (inactive)"}]}
{"smiles": "C(=N\\c1ccc(-c2nc3ccccc3o2)cc1)/c1ccco1", "values": [{"measurement": "GI50", "setting": "786-0", "value": "75.2 µM (inactive)"}, {"measurement": "GI50", "setting": "A498", "value": "37.7 µM (inactive)"}, {"measurement": "GI50", "setting": "ACHN", "value": "49.7 µM (inactive)"}, {"measurement": "GI50", "setting": "BT-549", "value": "77.4 µM (inactive)"}, {"measurement": "GI50", "setting": "CAKI-1", "value": "40 µM (inactive)"}, {"measurement": "GI50", "setting": "COLO 205", "value": "37.7 µM (inactive)"}, {"measurement": "GI50", "setting": "DU-145", "value": "75 µM (inactive)"}, {"measurement": "GI50", "setting": "EKVX", "value": "48.3 µM (inactive)"}, {"measurement": "GI50", "setting": "HCT-116", "value": "59.6 µM (inactive)"}, {"measurement": "GI50", "setting": "HCT-15", "value": 49.3, "unit": "µM"}, {"measurement": "GI50", "setting": "HOP-92", "value": "30.8 µM (inactive)"}, {"measurement": "GI50", "setting": "HT-29", "value": "63.5 µM (inactive)"}, {"measurement": "GI50", "setting": "IGROV-1", "value": "49.4 µM (inactive)"}, {"measurement": "GI50", "setting": "LOX IMVI", "value": "58.9 µM (inactive)"}, {"measurement": "GI50", "setting": "M14", "value": "79.6 µM (inactive)"}, {"measurement": "GI50", "setting": "MCF7", "value": "91.2 µM (inactive)"}, {"measurement": "GI50", "setting": "MDA-MB-435", "value": "75.9 µM (inactive)"}, {"measurement": "GI50", "setting": "MDA-N", "value": "64 µM (inactive)"}, {"measurement": "GI50", "setting": "MOLT-4", "value": "29 µM (inactive)"}, {"measurement": "GI50", "setting": "Malme-3M", "value": "82.2 µM (inactive)"}, {"measurement": "GI50", "setting": "NCI-H23", "value": "78.2 µM (inactive)"}, {"measurement": "GI50", "setting": "NCI-H522", "value": "44.2 µM (inactive)"}, {"measurement": "GI50", "setting": "NCI/ADR-RES", "value": "61.7 µM (inactive)"}, {"measurement": "GI50", "setting": "OVCAR-4", "value": "57.4 µM (inactive)"}, {"measurement": "GI50", "setting": "OVCAR-5", "value": "> 100 µM (inactive)"}, {"measurement": "GI50", "setting": "OVCAR-8", "value": "> 100 µM (inactive)"}, {"measurement": "GI50", "setting": "PC-3", "value": "55.7 µM (inactive)"}, {"measurement": "GI50", "setting": "RPMI-8226", "value": "0.0453 µM (active)"}, {"measurement": "GI50", "setting": "RXF 393", "value": "39.7 µM (inactive)"}, {"measurement": "GI50", "setting": "SF-539", "value": "> 100 µM (inactive)"}, {"measurement": "GI50", "setting": "SK-MEL-28", "value": "> 100 µM (inactive)"}, {"measurement": "GI50", "setting": "SK-MEL-2", "value": "87.1 µM (inactive)"}, {"measurement": "GI50", "setting": "SK-MEL-5", "value": "30.8 µM (inactive)"}, {"measurement": "GI50", "setting": "SN12C", "value": "61.9 µM (inactive)"}, {"measurement": "GI50", "setting": "SNB-19", "value": "> 100 µM (inactive)"}, {"measurement": "GI50", "setting": "SNB-75", "value": "49.1 µM (inactive)"}, {"measurement": "GI50", "setting": "SR", "value": "65.9 µM (inactive)"}, {"measurement": "GI50", "setting": "SW-620", "value": "> 100 µM (inactive)"}, {"measurement": "GI50", "setting": "T47D", "value": "38.6 µM (inactive)"}, {"measurement": "GI50", "setting": "UACC-257", "value": "48.3 µM (inactive)"}, {"measurement": "GI50", "setting": "UO-31", "value": "41.4 µM (inactive)"}]}
